Source: ChEMBL document CHEMBL1140691, “New type of anti-diabetic compounds from the processed leaves of Hydrangea macrophylla var. thunbergii (Hydrangeae Dulcis Folium)” (2007)

Columns and labels:
Type in all cases: functional
3T3-L1 [1] = test: Increase in triglyceride levels in mouse 3T3L1 cells at 1 uM
3T3-L1 [2] = test: Increase in triglyceride levels in mouse 3T3L1 cells at 3 uM
3T3-L1 [3] = test: Increase in triglyceride levels in mouse 3T3L1 cells at 10 uM
3T3-L1 [4] = test: Increase in triglyceride levels in mouse 3T3L1 cells at 30 uM
3T3-L1 [5] = test: Increase in triglyceride levels in mouse 3T3L1 cells at 100 uM
3T3-L1 [6] = test: Increase in adiponectin release in mouse 3T3L1 cells at 3 uM on day 4 by ELISA
3T3-L1 [7] = test: Increase in adiponectin release in mouse 3T3L1 cells at 10 uM on day 4 by ELISA
3T3-L1 [8] = test: Increase in adiponectin release in mouse 3T3L1 cells at 30 uM on day 4 by ELISA
3T3-L1 [9] = test: Increase in adiponectin release in mouse 3T3L1 cells at 100 uM on day 4 by ELISA
3T3-L1 [10] = test: Increase in adiponectin release in mouse 3T3L1 cells at 3 uM on day 6 by ELISA
3T3-L1 [11] = test: Increase in adiponectin release in mouse 3T3L1 cells at 10 uM on day 6 by ELISA
3T3-L1 [12] = test: Increase in adiponectin release in mouse 3T3L1 cells at 30 uM on day 6 by ELISA
Mus musculus [13] = test: Decrease in blood glucose levels in KKAy mouse at 200 mg/kg, po after 1 week
Mus musculus [14] = test: Decrease in blood glucose levels in KKAy mouse at 100 mg/kg, po after 2 weeks
Mus musculus [15] = test: Decrease in blood glucose levels in KKAy mouse at 200 mg/kg, po after 2 weeks
Mus musculus [16] = test: Effect on blood triglyceride levels in KKAy mouse at 100 mg/kg, po
Mus musculus [17] = test: Effect on blood triglyceride levels in KKAy mouse at 200 mg/kg, po
Mus musculus [18] = test: Effect on blood triglyceride levels in KKAy mouse at 100 mg/kg, po after 1 week
Mus musculus [19] = test: Effect on blood triglyceride levels in KKAy mouse at 200 mg/kg, po after 1 week
Mus musculus [20] = test: Effect on blood triglyceride levels in KKAy mouse at 100 mg/kg, po after 2 weeks
Mus musculus [21] = test: Effect on blood triglyceride levels in KKAy mouse at 200 mg/kg, po after 2 weeks
Mus musculus [22] = test: Decrease in blood free fatty acid levels in KKAy mouse at 100 mg/kg, po
Mus musculus [23] = test: Decrease in blood free fatty acid levels in KKAy mouse at 200 mg/kg, po
Mus musculus [24] = test: Decrease in blood free fatty acid levels in KKAy mouse at 100 mg/kg, po after 1 week
Mus musculus [25] = test: Decrease in blood free fatty acid levels in KKAy mouse at 200 mg/kg, po after 1 week
Mus musculus [26] = test: Decrease in blood free fatty acid levels in KKAy mouse at 100 mg/kg, po after 2 weeks
Mus musculus [27] = test: Decrease in blood free fatty acid levels in KKAy mouse at 200 mg/kg, po after 2 weeks
3T3-L1 [28] = test: Increase in adiponectin release in mouse 3T3L1 cells at 100 uM on day 6 by ELISA
3T3-L1 [29] = test: Increase in adiponectin gene expression in mouse 3T3L1 cells at 30 uM after 2 days relative to beta-actin mRNA expression
3T3-L1 [30] = test: Increase in adiponectin gene expression in mouse 3T3L1 cells at 100 uM after 2 days relative to beta-actin mRNA expression
3T3-L1 [31] = test: Increase in PPARgamma2 gene expression in mouse 3T3L1 cells at 30 uM after 2 days relative to beta-actin mRNA expression
3T3-L1 [32] = test: Increase in PPARgamma2 gene expression in mouse 3T3L1 cells at 100 uM after 2 days relative to beta-actin mRNA expression
3T3-L1 [33] = test: Decrease in IL6 gene expression in mouse 3T3L1 cells at 30 uM after 2 days relative to beta-actin mRNA expression
3T3-L1 [34] = test: Decrease in IL6 gene expression in mouse 3T3L1 cells at 100 uM after 2 days relative to beta-actin mRNA expression
3T3-L1 [35] = test: Increase in GLUT4 gene expression in mouse 3T3L1 cells at 30 uM after 2 days relative to beta-actin mRNA expression
3T3-L1 [36] = test: Increase in GLUT4 gene expression in mouse 3T3L1 cells at 100 uM after 2 days relative to beta-actin mRNA expression
3T3-L1 [37] = test: Increase in 2-Deoxyglucose-uptake in mouse 3T3L1 cells at 1 uM by liquid scintillation counter
3T3-L1 [38] = test: Increase in 2-Deoxyglucose-uptake in mouse 3T3L1 cells at 3 uM by liquid scintillation counter
3T3-L1 [39] = test: Increase in 2-Deoxyglucose-uptake in mouse 3T3L1 cells at 10 uM by liquid scintillation counter
3T3-L1 [40] = test: Increase in 2-Deoxyglucose-uptake in mouse 3T3L1 cells at 30 uM by liquid scintillation counter
3T3-L1 [41] = test: Increase in 2-Deoxyglucose-uptake in mouse 3T3L1 cells at 100 uM by liquid scintillation counter
Mus musculus [42] = test: Decrease in blood glucose levels in KKAy mouse at 100 mg/kg, po
Mus musculus [43] = test: Decrease in blood glucose levels in KKAy mouse at 200 mg/kg, po
Mus musculus [44] = test: Decrease in blood glucose levels in KKAy mouse at 100 mg/kg, po after 1 week
3T3-L1 [45] = test: Increase in adiponectin gene expression in mouse 3T3L1 cells at 3 uM after 2 days relative to beta-actin mRNA expression
3T3-L1 [46] = test: Increase in PPARgamma2 gene expression in mouse 3T3L1 cells at 3 uM after 2 days relative to beta-actin mRNA expression
3T3-L1 [47] = test: Decrease in IL6 gene expression in mouse 3T3L1 cells at 3 uM after 2 days relative to beta-actin mRNA expression
3T3-L1 [48] = test: Increase in GLUT4 gene expression in mouse 3T3L1 cells at 3 uM after 2 days relative to beta-actin mRNA expression

SMILES: O=C1OC(c2ccc(O)cc2)Cc2cccc(O)c21 (configuration not stated) [HYDRANGENOL]
- Activity (3T3-L1 [1]): 14.4%
- Activity (3T3-L1 [2]): 19.2%
- Activity (3T3-L1 [3]): 17.7%
- Activity (3T3-L1 [4]): 29.9%
- Activity (3T3-L1 [5]): 41.3%
- Activity (3T3-L1 [6]): 22.3 ng/mL
- Activity (3T3-L1 [7]): 22.8 ng/mL
- Activity (3T3-L1 [8]): 27.4 ng/mL
- Activity (3T3-L1 [9]): 33 ng/mL
- Activity (3T3-L1 [10]): 68.2 ng/mL
- Activity (3T3-L1 [11]): 84.2 ng/mL
- Activity (3T3-L1 [12]): 94 ng/mL
- Activity (Mus musculus [13]): 397.5 mg/dL
- Activity (Mus musculus [14]): 422.7 mg/dL
- Activity (Mus musculus [15]): 411.2 mg/dL
- Activity (Mus musculus [16]): 332.1 mg/dL
- Activity (Mus musculus [17]): 362.8 mg/dL
- Activity (Mus musculus [18]): 429.3 mg/dL
- Activity (Mus musculus [19]): 413.8 mg/dL
- Activity (Mus musculus [20]): 483.9 mg/dL
- Activity (Mus musculus [21]): 428.8 mg/dL
- Activity (Mus musculus [22]): 0.96 mEq/L
- Activity (Mus musculus [23]): 1.01 mEq/L
- Activity (Mus musculus [24]): 0.91 mEq/L
- Activity (Mus musculus [25]): 0.81 mEq/L
- Activity (Mus musculus [26]): 1.07 mEq/L
- Activity (Mus musculus [27]): 0.89 mEq/L
- Activity (3T3-L1 [28]): 99.8 ng/mL
- Ratio (3T3-L1 [29]): 1.98
- Ratio (3T3-L1 [30]): 2.46
- Ratio (3T3-L1 [31]): 1.92
- Ratio (3T3-L1 [32]): 2.65
- Ratio (3T3-L1 [33]): 0.78
- Ratio (3T3-L1 [34]): 0.51
- Ratio (3T3-L1 [35]): 1.12
- Ratio (3T3-L1 [36]): 1.38
- Activity (3T3-L1 [37]): 117%
- Activity (3T3-L1 [38]): 160%
- Activity (3T3-L1 [39]): 221%
- Activity (3T3-L1 [40]): 245%
- Activity (3T3-L1 [41]): 302%
- Activity (Mus musculus [42]): 336.3 mg/dL
- Activity (Mus musculus [43]): 336 mg/dL
- Activity (Mus musculus [44]): 389.1 mg/dL

SMILES: O=C1OC(c2ccc(O)c(O)c2)Cc2cc(O)cc(O)c21 (configuration not stated) [THUNBERGINOL D]
- Activity (3T3-L1 [1]): -1.2%
- Activity (3T3-L1 [2]): 2.8%
- Activity (3T3-L1 [3]): -0.8%
- Activity (3T3-L1 [4]): 4%
- Activity (3T3-L1 [5]): 12.5%

SMILES: O=c1oc(-c2ccc(O)c(O)c2)cc2cccc(O)c12 [THUNBERGINOL A]
- Activity (3T3-L1 [1]): 8%
- Activity (3T3-L1 [2]): 17.5%
- Activity (3T3-L1 [3]): 19.6%
- Activity (3T3-L1 [4]): 15.7%
- Activity (3T3-L1 [5]): -27.6%

SMILES: COc1ccc([C@H]2Cc3cccc(O[C@@H]4O[C@H](CO)[C@@H](O)[C@H](O)[C@H]4O)c3C(=O)O2)cc1O
- Activity (3T3-L1 [1]): 3.6%
- Activity (3T3-L1 [2]): 8.7%
- Activity (3T3-L1 [3]): -1.5%
- Activity (3T3-L1 [4]): -3%
- Activity (3T3-L1 [5]): 6.6%

SMILES: O=C1OC(c2ccc(O)cc2)Cc2cc(O)cc(O)c21 (configuration not stated) [THUNBERGINOL C]
- Activity (3T3-L1 [1]): -9.3%
- Activity (3T3-L1 [2]): -7.5%
- Activity (3T3-L1 [3]): -11.1%
- Activity (3T3-L1 [4]): -17.6%
- Activity (3T3-L1 [5]): 1.4%

SMILES: COc1ccc([C@H]2Cc3cc(O)cc(O)c3C(=O)O2)cc1O [THUNBERGINOL E]
- Activity (3T3-L1 [1]): -6.3%
- Activity (3T3-L1 [2]): -7.5%
- Activity (3T3-L1 [3]): -8%
- Activity (3T3-L1 [4]): 3.4%
- Activity (3T3-L1 [5]): -4%

SMILES: COc1ccc([C@H]2Cc3cccc(O)c3C(=O)O2)cc1O [PHYLLODULCIN]
- Activity (3T3-L1 [1]): -0.7%
- Activity (3T3-L1 [2]): 12.8%
- Activity (3T3-L1 [3]): 9.8%
- Activity (3T3-L1 [4]): 23.8%
- Activity (3T3-L1 [5]): 20.3%

SMILES: O=C(O)c1c(O)cccc1/C=C/c1ccc(O)cc1 [HYDRANGEAIC ACID]
- Activity (3T3-L1 [1]): 2.2%
- Activity (3T3-L1 [2]): 11.7%
- Activity (3T3-L1 [3]): 11.1%
- Activity (3T3-L1 [4]): 27.3%
- Activity (3T3-L1 [5]): 41.2%

SMILES: O=c1oc(-c2ccc(O)c(O)c2)cc2cc(O)cc(O)c12 [THUNBERGINOL B]
- Activity (3T3-L1 [1]): -3.8%
- Activity (3T3-L1 [2]): -8%
- Activity (3T3-L1 [3]): -7.8%
- Activity (3T3-L1 [4]): 7.2%
- Activity (3T3-L1 [5]): 54.1%

SMILES: O=C1OC(c2ccc(O)cc2)Cc2cccc(O[C@@H]3O[C@H](CO)[C@@H](O)[C@H](O)[C@H]3O)c21 (some centres not stated)
- Activity (3T3-L1 [1]): 11.1%
- Activity (3T3-L1 [2]): 11.2%
- Activity (3T3-L1 [3]): 1.2%
- Activity (3T3-L1 [4]): 10.5%
- Activity (3T3-L1 [5]): 9.2%

SMILES: O=C1O/C(=C\c2ccc(O)c(O)c2)c2cccc(O)c21 [THUNBERGINOL F]
- Activity (3T3-L1 [1]): 2.1%
- Activity (3T3-L1 [2]): 6.2%
- Activity (3T3-L1 [3]): 6.2%
- Activity (3T3-L1 [4]): 8.3%
- Activity (3T3-L1 [5]): -54.8%

SMILES: Cc1c(C)c2c(c(C)c1O)CCC(C)(COc1ccc(CC3SC(=O)NC3=O)cc1)O2 (configuration not stated) [TROGLITAZONE]
- Activity (3T3-L1 [1]): 33.8%
- Activity (3T3-L1 [2]): 40.5%
- Activity (3T3-L1 [3]): 39.6%
- Activity (3T3-L1 [8]): 43 ng/mL
- Activity (3T3-L1 [12]): 101.2 ng/mL
- Activity (Mus musculus [16]): 329.4 mg/dL
- Activity (Mus musculus [18]): 303.4 mg/dL
- Activity (Mus musculus [20]): 464.6 mg/dL
- Activity (Mus musculus [22]): 0.95 mEq/L
- Activity (Mus musculus [24]): 0.62 mEq/L
- Activity (Mus musculus [26]): 0.8 mEq/L
- Ratio (3T3-L1 [45]): 3.01
- Ratio (3T3-L1 [46]): 1.09
- Ratio (3T3-L1 [47]): 0.89
- Ratio (3T3-L1 [48]): 2.92
- Activity (3T3-L1 [38]): 388%
- Activity (Mus musculus [42]): 307.5 mg/dL
- Activity (Mus musculus [44]): 293.3 mg/dL
